Experiment [1] relates to NRK (normal rat kidney) cells. Description: tritium labeled thymidine incorporation of low and high passage NRK cells, with and without EGF. The format is cell-based. The settings on record: low passage NRK cells, serum free medium. The source says:
(§1) Further exploration of this point was done with the cell line designated NRK (normal rat kidney). When used at a low passage number these cells behave as a normal, non-tumorigenic line, as evidenced by their low rates of colony formation in soft agar. This growth pattern facilitated wide spread use of the NRK cells as bioassay targets for alpha- and beta-transforming growth factors. The bioassay of transforming growth factors by soft agar colony formation was shown by others to require the additon of epidermal growth factor (EGF). At higher passage numbers, these cells progressively increase their capacity to form colonies in soft agar without requiring the presence of growth factor supplements to the usual serum containing medium. Using these properties, we have asked whether low and high passage NRK cells responded to KDGF both with and without added EGF. These experiments were conducted in serum free medium, since the presence of even low concentrations (i.e. 1%, vol/vol) of serum inhibited KDGF action. […] Thus with the relatively non-tumorigenic pheno-type NRK cells, KDGF and EGF were synergistic when cells were in sparse culture. […] In a final experiment, the growth promoting effects of EGF and/or KDGF were compared on LLCK-PK1 pig kidney cells. […] EGF alone was mitogenic for LLCK-PK1 cells, whereas KDGF was not. […]

The subject of experiment [2] is LLCK-PK1 pig kidney cells. Description: growth promoting effects of EGF and/or KDGF on LLCK-PK1 cells. Type of experiment: cell-based.
Description: as §1

Experiment [3] deals with MDCK kidney cell line. Description: growth response of MDCK cells. The format is cell-based, dog.

epidermal growth factor [EGF]: the “growth (tritium labeled thymidine incorporation), factor alone” value in experiment [1] (confluent cultures) was “Neither KDGF alone nor EGF alone promoted growth”. Besides, the “mitogenic response, factor alone” value in experiment [1] (non-confluent cultures) is listed as “limited mitogenic responses”. The “mitogenic activity, factor alone” value in experiment [2] was “mitogenic”. For the same substance, the growth response result in experiment [3] is on record as “responded”.

The record behind these values is US4670539A, “Peptide growth factors derived from estrogen responsive kidney tissue” (Board of Regents, The University of Texas, priority 1984, dated 1987).
